According to US8258134B2, “Pyridazinone glucokinase activators” (Hoffmann-La Roche Inc., priority 2008, dated 2012):

Molecular target: T1, Recombinant human liver GK1 (GST-GK) (Homo sapiens, UniProt P35557)
T1 construct: made in house; host or cells: E. coli
T1 sequence (P35557 1-466 isoform P35557-2): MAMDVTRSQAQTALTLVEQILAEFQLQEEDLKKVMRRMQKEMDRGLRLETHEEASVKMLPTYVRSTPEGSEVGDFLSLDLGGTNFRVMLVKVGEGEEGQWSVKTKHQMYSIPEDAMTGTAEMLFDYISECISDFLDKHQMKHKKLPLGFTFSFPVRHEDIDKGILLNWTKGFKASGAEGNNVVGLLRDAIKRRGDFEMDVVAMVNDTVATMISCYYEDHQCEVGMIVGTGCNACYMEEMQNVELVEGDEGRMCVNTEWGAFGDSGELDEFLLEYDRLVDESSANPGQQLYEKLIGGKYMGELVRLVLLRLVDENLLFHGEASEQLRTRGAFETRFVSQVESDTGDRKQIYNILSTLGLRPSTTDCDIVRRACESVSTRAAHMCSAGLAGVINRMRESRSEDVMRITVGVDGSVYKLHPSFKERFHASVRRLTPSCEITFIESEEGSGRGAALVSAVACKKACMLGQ
Test: Glucokinase in vitro assay (G6PDH-coupled NADH generation, OD340)
Type: biochemical
Details: 5 mM D-glucose, 30° C., pH 7.1, 10% DMSO
Procedure: Glucokinase In Vitro Assay Protocol: Glucokinase (GK) was assayed by coupling the production of glucose-6-phosphate to the generation of NADH with glucose-6-phosphate dehydrogenase (G6PDH, 0.75-1 k units/mg; Boehringer Mannheim, Indianapolis, Ind.) from Leuconostoc mesenteroides as the coupling enzyme (Scheme 2):
Recombinant human liver GK1 was expressed in E. coli as a glutathione S-transferase fusion protein (GST-GK) [Liang et al, 1995] and was purified by chromatography over a glutathione-Sepharose 4B affinity column using the procedure provided by the manufacturer (Amersham Pharmacia Biotech, Piscataway, N.J.).
The assay was conducted at 30° C. in a flat bottom 96-well tissue culture plate from Costar (Cambridge, Mass.) with a final incubation volume of 120 μL. The incubation reaction contained the following: 25 mM Hepes buffer (pH 7.1), 25 mM KCl, 5 mM D-glucose, 1 mM ATP, 1.8 mM NAD, 2 mM MgCl2, 1 μM sorbitol-6-phosphate, 1 mM dithiothreitol, test drug or 10% DMSO, ˜7 units/ml G6PDH, and GK (see below). All organic reagents were >98% pure and were from Boehringer Mannheim with the exceptions of D-glucose and Hepes which were from Sigma Chemical Co, St Louis, Mo. Test compounds were dissolved in DMSO and were added to the incubation reaction minus GST-GK in a volume of 12 μL to yield a final DMSO concentration of 10%. This mix was pre-incubated in the temperature controlled chamber of a SPECTRAmax 250 microplate spectrophotometer (Molecular Devices Corporation, Sunnyvale, Calif.) for 10 minutes to allow temperature equilibrium and then the reaction was started by the addition of 20 μL GST-GK.
After addition of enzyme, the increase in optical density (OD) at 340 nm was monitored spectrophotometrically to determine the rate of change (OD340 per min). The GK activity (OD340/min) in control wells (10% DMSO minus GK activators) was compared with the activity in wells containing test GK activators, and the concentration of activator that produced a 50% increase in the activity of GK, i.e., the SC1.5, was calculated. The table below provides the in vitro glucokinase activity for the compounds in the Examples: […]

## CC(C)(O)Cn1ccc(NC(=O)[C@@H](CC2CCCC2)n2ncc(Oc3ccc(F)cc3F)cc2=O)n1 [Example 32B, (R)-3-Cyclopentyl-2-[4-(2,4-difluoro-phenoxy)-6-oxo-6H-pyridazin-1-yl]-N-[1-(2-hydroxy-2-methyl-propyl)-1H-pyrazol-3-yl]-propionamide]
  SC1.5 average (concentration of activator that produced a 50% increase in the activity of GK): 26.185 µM

## CC(C)(O)Cn1ccc(NC(=O)[C@H](CC2CCCC2)n2ncc(Oc3cc(F)ccc3F)cc2=O)n1 [Example 33A, (S)-3-Cyclopentyl-2-[4-(2,5-difluoro-phenoxy)-6-oxo-6H-pyridazin-1-yl]-N-[1-(2-hydroxy-2-methyl-propyl)-1H-pyrazol-3-yl]-propionamide]
  SC1.5 average (concentration of activator that produced a 50% increase in the activity of GK): 0.265 µM

## CC(C)(O)Cn1ccc(NC(=O)[C@@H](CC2CCCC2)n2ncc(Oc3cc(F)ccc3F)cc2=O)n1 [Example 33B, (R)-3-Cyclopentyl-2-[4-(2,5-difluoro-phenoxy)-6-oxo-6H-pyridazin-1-yl]-N-[1-(2-hydroxy-2-methyl-propyl)-1H-pyrazol-3-yl]-propionamide]
  SC1.5 average (concentration of activator that produced a 50% increase in the activity of GK): 8.849 µM

## CC(C)(O)Cn1ccc(NC(=O)C(CC2CCCC2)n2ncc(Oc3ccccc3N3CCOCC3)cc2=O)n1 (stereo not shown) [Example 34, 3-Cyclopentyl-N-[1-(2-hydroxy-2-methyl-propyl)-1H-pyrazol-3-yl]-2-[4-(2-morpholin-4-yl-phenoxy)-6-oxo-6H-pyridazin-1-yl]-propionamide]
  SC1.5 average (concentration of activator that produced a 50% increase in the activity of GK): 1.72 µM

## CC(C)(O)Cn1ccc(NC(=O)C(CC2CCCC2)n2ncc(Oc3cccc(Oc4ccccc4)c3)cc2=O)n1 (stereo not shown) [Example 35, 3-Cyclopentyl-N-[1-(2-hydroxy-2-methyl-propyl)-1H-pyrazol-3-yl]-2-[6-oxo-4-(3-phenoxy-phenoxy)-6H-pyridazin-1-yl]-propionamide]
  SC1.5 average (concentration of activator that produced a 50% increase in the activity of GK): 2.173 µM

## CC(C)(O)Cn1ccc(NC(=O)[C@H](CC2CCCC2)n2ncc(Oc3c(F)cccc3F)cc2=O)n1 [Example 36A, (S)-3-Cyclopentyl-2-[4-(2,6-difluoro-phenoxy)-6-oxo-6H-pyridazin-1-yl]-N-[1-(2-hydroxy-2-methyl-propyl)-1H-pyrazol-3-yl]-propionamide]
  SC1.5 average (concentration of activator that produced a 50% increase in the activity of GK): 0.034 µM

## CC(C)(O)Cn1ccc(NC(=O)[C@@H](CC2CCCC2)n2ncc(Oc3c(F)cccc3F)cc2=O)n1 [Example 36B, (R)-3-Cyclopentyl-2-[4-(2,6-difluoro-phenoxy)-6-oxo-6H-pyridazin-1-yl]-N-[1-(2-hydroxy-2-methyl-propyl)-1H-pyrazol-3-yl]-propionamide]
  SC1.5 average (concentration of activator that produced a 50% increase in the activity of GK): 1.596 µM

## CC(C)(O)Cn1ccc(NC(=O)C(CC2CCCC2)n2ncc(Oc3cccc4cnccc34)cc2=O)n1 (stereo not shown) [Example 37, 3-Cyclopentyl-N-[1-(2-hydroxy-2-methyl-propyl)-1H-pyrazol-3-yl]-2-[4-(isoquinolin-5-yloxy)-6-oxo-6H-pyridazin-1-yl]-propionamide]
  SC1.5 average (concentration of activator that produced a 50% increase in the activity of GK): 0.566 µM

## CC(C)(O)Cn1ccc(NC(=O)[C@H](CC2CCCC2)n2ncc(Oc3cccc4cnccc34)cc2=O)n1 [Example 37A, (S)-3-Cyclopentyl-N-[1-(2-hydroxy-2-methyl-propyl)-1H-pyrazol-3-yl]-2-[4-(isoquinolin-5-yloxy)-6-oxo-6H-pyridazin-1-yl]-propionamide]
  SC1.5 average (concentration of activator that produced a 50% increase in the activity of GK): 0.238 µM

## CC(C)(O)Cn1ccc(NC(=O)[C@@H](CC2CCCC2)n2ncc(Oc3cccc4cnccc34)cc2=O)n1 [Example 37B, (R)-3-Cyclopentyl-N-[1-(2-hydroxy-2-methyl-propyl)-1H-pyrazol-3-yl]-2-[4-(isoquinolin-5-yloxy)-6-oxo-6H-pyridazin-1-yl]-propionamide]
  SC1.5 average (concentration of activator that produced a 50% increase in the activity of GK): 18.488 µM

## CC(C)(O)Cn1ccc(NC(=O)C(CC2CCCC2)n2ncc(Oc3cccc4ncccc34)cc2=O)n1 (stereo not shown) [Example 38, 3-Cyclopentyl-N-[1-(2-hydroxy-2-methyl-propyl)-1H-pyrazol-3-yl]-2-[6-oxo-4-(quinolin-5-yloxy)-6H-pyridazin-1-yl]-propionamide]
  SC1.5 average (concentration of activator that produced a 50% increase in the activity of GK): 0.776 µM

## CC(C)(O)Cn1ccc(NC(=O)C(CC2CCCC2)n2ncc(Oc3cccc4cccnc34)cc2=O)n1 (stereo not shown) [Example 39, 3-Cyclopentyl-N-[1-(2-hydroxy-2-methyl-propyl)-1H-pyrazol-3-yl]-2-[6-oxo-4-(quinolin-8-yloxy)-6H-pyridazin-1-yl]-propionamide]
  SC1.5 average (concentration of activator that produced a 50% increase in the activity of GK): 0.499 µM

## CC(=O)c1ccccc1Oc1cnn(C(CC2CCCC2)C(=O)Nc2ccn(CC(C)(C)O)n2)c(=O)c1 (stereo not shown) [Example 40, 2-[4-(2-Acetyl-phenoxy)-6-oxo-6H-pyridazin-1-yl]-3-cyclopentyl-N-[1-(2-hydroxy-2-methyl-propyl)-1H-pyrazol-3-yl]-propionamide]
  SC1.5 average (concentration of activator that produced a 50% increase in the activity of GK): 0.228 µM

## CC(C)(O)Cn1ccc(NC(=O)C(CC2CCCC2)n2ncc(Oc3ccccc3C(=O)N3CCCC3)cc2=O)n1 (stereo not shown) [Example 41, 3-Cyclopentyl-N-[1-(2-hydroxy-2-methyl-propyl)-1H-pyrazol-3-yl]-2-{6-oxo-4-[2-(pyrrolidine-1-carbonyl)-phenoxy]-6H-pyridazin-1-yl}-propionamide]
  SC1.5 average (concentration of activator that produced a 50% increase in the activity of GK): 8.414 µM

## CC(C)CC(C(=O)Nc1ccn(CC(C)(C)O)n1)n1ncc(Oc2c(F)cccc2F)cc1=O (stereo not shown) [Example 42, 2-[4-(2,6-Difluoro-phenoxy)-6-oxo-6H-pyridazin-1-yl]-4-methyl-pentanoic acid [1-(2-hydroxy-2-methyl-propyl)-1H-pyrazol-3-yl]-amide]
  SC1.5 average (concentration of activator that produced a 50% increase in the activity of GK): 0.349 µM

## CC(C)C[C@@H](C(=O)Nc1ccn(CC(C)(C)O)n1)n1ncc(Oc2c(F)cccc2F)cc1=O [Example 42A, (S)-2-[4-(2,6-Difluoro-phenoxy)-6-oxo-6H-pyridazin-1-yl]-4-methyl-pentanoic acid [1-(2-hydroxy-2-methyl-propyl)-1H-pyrazol-3-yl]-amide]
  SC1.5 average (concentration of activator that produced a 50% increase in the activity of GK): 0.17 µM

## CC(C)C[C@H](C(=O)Nc1ccn(CC(C)(C)O)n1)n1ncc(Oc2c(F)cccc2F)cc1=O [Example 42B, (R)-2-[4-(2,6-Difluoro-phenoxy)-6-oxo-6H-pyridazin-1-yl]-4-methyl-pentanoic acid [1-(2-hydroxy-2-methyl-propyl)-1H-pyrazol-3-yl]-amide]
  SC1.5 average (concentration of activator that produced a 50% increase in the activity of GK): 5.981 µM

## CC(C)(O)Cn1ccc(NC(=O)C(CC2CCOCC2)n2ncc(Oc3c(F)cccc3F)cc2=O)n1 (stereo not shown) [Example 43, 2-[4-(2,6-Difluoro-phenoxy)-6-oxo-6H-pyridazin-1-yl]-N-[1-(2-hydroxy-2-methyl-propyl)-1H-pyrazol-3-yl]-3-(tetrahydro-pyran-4-yl)-propionamide]
  SC1.5 average (concentration of activator that produced a 50% increase in the activity of GK): 0.232 µM

## CC(C)(O)Cn1ccc(NC(=O)[C@H](CC2CCOCC2)n2ncc(Oc3c(F)cccc3F)cc2=O)n1 [Example 43A, (S)-2-[4-(2,6-Difluoro-phenoxy)-6-oxo-6H-pyridazin-1-yl]-N-[1-(2-hydroxy-2-methyl-propyl)-1H-pyrazol-3-yl]-3-(tetrahydro-pyran-4-yl)-propionamide]
  SC1.5 average (concentration of activator that produced a 50% increase in the activity of GK): 0.148 µM
